Data: patent publication US12624018B1, “Inhibitors of RIPK2 and medical uses thereof” (Odyssey Therapeutics, Inc., priority 2022, dated 2026)
Read-outs that look alike come from different tables or passages of the source.

Columns and labels:
RIPK2 enzyme = target: T1, RIPK2 enzyme (Homo sapiens, UniProt O43353); experiment: RIPK2 inhibition (ADP-Glo Kinase Assay); format: biochemical; details: RIPK2 5 nM, ATP 150 μM, MBP substrate, read-out: RIPK2 IC50
T1 construct: purchased Carna 09-128
How it was run: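 Human RIPK2 (5 nM) preincubated with compound 30 min at room temperature in 50 mM HEPES pH 7.5, 10 mM MgCl2, 2 mM DTT, 1 mM EGTA, 0.01% Brij-35, 0.05% BSA; native swine MBP as substrate. ADP formed quantified by ADP-Glo luminescence; percent inhibition relative to DMSO and no-enzyme controls.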

human NOD2 signaling = experiment: Inhibition of human NOD2 signaling in HEK-Blue-hNOD2 cells (L18-MDP stimulated, SEAP reporter); format: cell-based; details: NOD2 ligand stimulation, SEAP reporter, read-out: hNOD2 IC50
Description: Materials: Human NOD32-expressing 1TEK293 cells, HEK-Blue™-hNOD2 cells, were developed by Invivogen (catalogue number: hkb-hnod2) using co-transfection of the human NOD2 gene and an optimized secreted embryonic alkaline phosphatase (SEAP) reporter gene into HTEK293 cells. The cell maintenance medium consisted of DMEM (Giboc, 21063-029), heat inactivated FBS, penicillin (100 U/mL), streptomycin (100 μg/mL), Normocin (100 μg/mL), Blasticidin (30 μg/mL), and Zeocin (100 μg/mL). HEK-Blue™-hNOD2 cells were transferred to assay medium consisting of DMEM (Giboc, 21063-029), heat inactivated FBS, penicillin (100 U/mL) and streptomycin (100 μg/mL) prior to stimulation. Stimulation with a NOD2 ligand, L18-MDP (Invivogen, catalogue number: tlrl-lmdp) activated NF-κB and AP-1 which induced the production of SEAP. Levels of SEAP were determined with HEK-Blue™ Detection (referred to as QUANTI-Blue solution), a cell culture medium that allows for real-time detection of SEAP. QUANTI-Blue solution was prepared by adding 1 mL of QB reagent and 1 mL of QB buffer to 98 mL of sterile H2O. Test compounds were prepared into a 10 mM DMSO solution and were serially diluted into 10 points using a 3-fold dilution in a 384 well plate using a TECAN EVO200.
Method: In a 384 well plate, 40 nL of test compound was dispensed using Echo550. HEK-Blue™-hNOD2 cells (Invivogen) were prepared into a cell suspension and 40 μL of the cell suspension (12500 cells per well) was dispensed into the 384 well plate. To activate NOD2 signaling, 40 nL of L18-MDP (final concentration of 0.5 ng/mL) was added and the plate was incubated at 37° C. in a CO2 incubator for 24 hours. After the 24-hour incubation, 5 μL of the induced HEK-Blue hNOD2 cell supernatant was transferred to a new 384-well plate, centrifuged, and 45 μL of QUANTI-Blue solution was added per well and incubated for 3 hours at 37° C. SEAP levels were measured using an Ensight at 620 nm. Percent inhibition of NOD2 signaling was determined using the following equation: (high control−test compound signal)/(High control−low control)×100. The reaction high control was determined using wells with DMSO, cells, L18-MDP, and QUANTI-Blue solution. The reaction low control was determined using wells with DMSO, cells, and QUANTI-Blue solution. 4-parametric curve fit was used to determine the test compound concentration that results in 50% reduction of L18-MDP-driven human NOD2 signaling.
Using the assay described above, inhibition of hNOD2 signaling was also evaluated for GSK 2983559 (Haile at al., J. Med. Chem. 2019, 62, 14, 6482-6494), a known RIPK2 kinase inhibitor: […]

[1] = Homo sapiens, HEK-Blue hNOD2, HEK-Blue-hNOD2 cells

T1 sequence (O43353 1-299 limits assumed): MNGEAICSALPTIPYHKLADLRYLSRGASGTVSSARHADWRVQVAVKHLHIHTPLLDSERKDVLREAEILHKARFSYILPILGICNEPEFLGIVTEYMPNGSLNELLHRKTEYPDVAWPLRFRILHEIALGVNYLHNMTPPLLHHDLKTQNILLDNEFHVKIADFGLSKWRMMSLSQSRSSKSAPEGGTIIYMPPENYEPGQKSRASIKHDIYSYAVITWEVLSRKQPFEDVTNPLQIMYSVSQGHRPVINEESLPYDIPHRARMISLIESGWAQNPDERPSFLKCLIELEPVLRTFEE

| SMILES | IC50 (RIPK2 enzyme) [nM] | IC50 (human NOD2 signaling; HEK-Blue-hNOD2 cells) [nM] | IC50 (human NOD2 signaling; [1]) [nM] |
| --- | --- | --- | --- |
| Cc1c(Oc2ccnc3ccc(S(=N)(=O)C4CC4)cc23)ccc(CC(=O)Nc2cnn(C34CC(C3)C4)c2)c1F (single isomer, unassigned) [Compound 528, N-(1-(bicyclo[1.1.1]pentan-1-yl)-1H-pyrazol-4-yl)-2-(4-((6-(cyclopropanesul-fonimidoyl)quinolin-4-yl)oxy)-2-fluoro-3-methylphenyl) acetamide] | < 2.5 |  | 0.8 |
| N=S(=O)(c1ccc2nccc(Oc3cc(F)c(CC(=O)Nc4cnn(C56CC(C5)C6)c4)cc3Cl)c2c1)C1CC1 (single isomer, unassigned) [Compound 531, N-(1-(bicyclo[1.1.1]pentan-1-yl)-1H-pyrazol-4-yl)-2-(5-chloro-4-((6-(cyclopropanesul-fonimidoyl)quinolin-4-yl)oxy)-2-fluorophenyl) acetamide] | < 2.5 | 41.6 |  |
| N=S(=O)(c1ccc2nccc(Oc3cc(F)c(CC(=O)Nc4cnn(C56CC(C5)C6)c4)cc3Cl)c2c1)C1CC1 (single isomer, unassigned) [Compound 532, N-(1-(bicyclo[1.1.1]pentan-1-yl)-1H-pyrazol-4-yl)-2-(5-chloro-4-((6-(cyclopropanesul-fonimidoyl)quinolin-4-yl)oxy)-2-fluorophenyl) acetamide] | < 2.5 | 16.9 |  |
| Cc1c(Oc2ccnc3ccc(S(=N)(=O)C(C)C)cc23)ccc(CC(=O)Nc2cnn(C(C)(C)C)c2)c1F (single isomer, unassigned) [Compound 537, N-(1-(tert-butyl)-1H-pyrazol-4-yl)-2-(2-fluoro-3-methyl-4-((6-(propan-2-ylsulfonimidoyl)quinolin-4-yl)oxy)phenyl) acetamide] | < 2.5 |  | 0.4 |
| Cc1c(Oc2ccnc3ccc(S(=N)(=O)C(C)(C)C)cc23)ccc(CC(=O)Nc2cnn(C(C)(C)C)c2)c1F (single isomer, unassigned) [Compound 540, N-(1-(tert-butyl)-1H-pyrazol-4-yl)-2-(2-fluoro-3-methyl-4-((6-(2-methylpropan-2-ylsulfonimidoyl)quinolin-4-yl)oxy)phenyl) acetamide] | < 2.5 | 0.5 |  |
| Cc1c(Oc2ccnc3ccc(S(=N)(=O)C4CCC4)cc23)ccc(CC(=O)Nc2cnn(C(C)(C)C)c2)c1F (single isomer, unassigned) [Compound 541, N-(1-(tert-butyl)-1H-pyrazol-4-yl)-2-(4-((6-(cyclobutanesulf-onimidoyl)quinolin-4-yl)oxy)-2-fluoro-3-methylphenyl) acetamide] | < 2.5 |  | 0.3 |
| Cc1c(Oc2ccnc3ccc(S(=N)(=O)C4CCC4)cc23)ccc(CC(=O)Nc2cnn(C(C)(C)C)c2)c1F (single isomer, unassigned) [Compound 542, N-(1-(tert-butyl)-1H-pyrazol-4-yl)-2-(4-((6-(cyclobutanesulf-onimidoyl)quinolin-4-yl)oxy)-2-fluoro-3-methylphenyl) acetamide] | < 2.5 | 0.2 |  |
| Cc1cc(CC(=O)Nc2cnn(C(C)(C)C)c2)ccc1Oc1ccnc2ccc(S(=N)(=O)C(C)(C)C)cc12 (single isomer, unassigned) [Compound 549, N-(1-(tert-butyl)-1H-pyrazol-4-yl)-2-(3-methyl-4-((6-(2-methylpropan-2-ylsulfonimidoyl)quinolin-4-yl)oxy)phenyl) acetamide] | < 2.5 |  | 18.2 |
| Cc1cc(CC(=O)Nc2cnn(C(C)(C)C)c2)ccc1Oc1ccnc2cc(F)c(S(=N)(=O)C3CC3)cc12 (single isomer, unassigned) [Compound 553, N-(1-(tert-butyl)-1H-pyrazol-4-yl)-2-(4-((6-(cyclopropane-sulfonimidoyl)-7-fluoroquinolin-4-yl)oxy)-3-methylphenyl) acetamide] | < 2.5 |  | 5.6 |
| CCS(=N)(=O)c1ccc2nccc(Oc3ccc(CC(=O)Nc4cnn(C56CC(C5)C6)c4)cc3C)c2c1 (single isomer, unassigned) [Compound 593, N-(1-(bicyclo[1.1.1]pentan-1-yl)-1H-pyrazol-4-yl)-2-(4-((6-(ethylsulfonimidoyl)quinolin-4-yl)oxy)-3-methylphenyl) acetamide] | < 2.5 |  | 6.7 |

The remaining lines, values ahead:

| IC50 (RIPK2 enzyme) [nM] | IC50 (human NOD2 signaling; HEK-Blue-hNOD2 cells) [nM] | IC50 (human NOD2 signaling; [1]) [nM] | SMILES |
| --- | --- | --- | --- |
| < 2.5 | 0.7 |  | Cc1c(Oc2ccnc3ccc(S(=N)(=O)C4CC4)cc23)ccc(CC(=O)Nc2cnn(C34CC(C3)C4)c2)c1F (single isomer, unassigned) [Compound 527] |
| < 2.5 |  | 10.4 | CC(C)(C)n1cc(NC(=O)Cc2cc(Cl)c(Oc3ccnc4ccc(S(=N)(=O)C5CC5)cc34)cc2F)cn1 (single isomer, unassigned) [Compound 533, N-(1-(tert-butyl)-1H-pyrazol-4-yl)-2-(5-chloro-4-((6-(cyclopropanesul-fonimidoyl)quinolin-4-yl)oxy)-2-fluorophenyl) acetamide] |
| < 2.5 | 6 |  | CC(C)(C)n1cc(NC(=O)Cc2cc(Cl)c(Oc3ccnc4ccc(S(=N)(=O)C5CC5)cc34)cc2F)cn1 (single isomer, unassigned) [Compound 534, N-(1-(tert-butyl)-1H-pyrazol-4-yl)-2-(5-chloro-4-((6-(cyclopropanesulfonimidoyl)quinolin-4-yl)oxy)-2-fluorophenyl) acetamide] |
| < 2.5 |  | 0.8 | CCS(=N)(=O)c1ccc2nccc(Oc3ccc(CC(=O)Nc4cnn(C(C)(C)C)c4)c(F)c3C)c2c1 (single isomer, unassigned) [Compound 535, N-(1-(tert-butyl)-1H-pyrazol-4-yl)-2-(4-((6-(ethylsulfonimidoyl)quinolin-4-yl)oxy)-2-fluoro-3-methylphenyl) acetamide] |
| < 2.5 | 0.7 |  | CCS(=N)(=O)c1ccc2nccc(Oc3ccc(CC(=O)Nc4cnn(C(C)(C)C)c4)c(F)c3C)c2c1 (single isomer, unassigned) [Compound 536, N-(1-(tert-butyl)-1H-pyrazol-4-yl)-2-(4-((6-(ethylsulfonimi-doyl)quinolin-4-yl)oxy)-2-fluoro-3-methylphenyl) acetamide] |
| < 2.5 | 0.2 |  | Cc1c(Oc2ccnc3ccc(S(=N)(=O)C(C)C)cc23)ccc(CC(=O)Nc2cnn(C(C)(C)C)c2)c1F (single isomer, unassigned) [Compound 538, N-(1-(tert-butyl)-1H-pyrazol-4-yl)-2-(2-fluoro-3-methyl-4-((6-(propan-2-ylsulfonimidoyl)quinolin-4-yl)oxy)phenyl) acetamide] |
| < 2.5 | 1.2 |  | Cc1c(Oc2ccnc3ccc(S(=N)(=O)C(C)(C)C)cc23)ccc(CC(=O)Nc2cnn(C(C)(C)C)c2)c1F (single isomer, unassigned) [Compound 539, N-(1-(tert-butyl)-1H-pyrazol-4-yl)-2-(2-fluoro-3-methyl-4-((6-(2-methylpropan-2-ylsulfonimidoyl)quinolin-4-yl)oxy)phenyl) acetamide] |
| < 2.5 | 11 |  | Cc1cc(CC(=O)Nc2cnn(C(C)(C)C)c2)ccc1Oc1ccnc2ccc(S(=N)(=O)C(C)(C)C)cc12 (single isomer, unassigned) [Compound 550, N-(1-(tert-butyl)-1H-pyrazol-4-yl)-2-(3-methyl-4-((6-(2-methylpropan-2-ylsulfonimidoyl)quinolin-4-yl)oxy)phenyl) acetamide] |
| < 2.5 | 4.9 |  | Cc1cc(CC(=O)Nc2cnn(C(C)(C)C)c2)ccc1Oc1ccnc2cc(F)c(S(=N)(=O)C3CC3)cc12 (single isomer, unassigned) [Compound 554, N-(1-(tert-butyl)-1H-pyrazol-4-yl)-2-(4-((6-(cyclopropane-sulfonimidoyl)-7-fluoroquinolin-4-yl)oxy)-3-methylphenyl) acetamide] |
